Reference: patent US8017612B2, “Piperazine compound and use thereof as a HCV polymerase inhibitor” (priority 2006, dated 2011)
Structures can show the parent of a compound that is named as a salt.

Columns and labels:
[1] = biological target: T1, HCV polymerase (NS5B) type 1a (Hepatitis C virus genotype 1a, UniProt P26664); experiment: Assay of enzyme (HCV polymerase) inhibitory activity, type 1a enzyme; format: biochemical, HCV type 1a (cloned from the blood of patients); conditions: HCV polymerase inhibitory activity (IC50), 1a, type 1a enzyme 1.5 μg/ml, 25° C., 60 min
T1 construct: made in house; host or cells: Escherichia coli (by the 'similar method' of the 1b enzyme)
In short: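 Patient-derived type 1a NS5B (C-terminal 47-aa deletion, His-tagged, E. coli-expressed) at 1.5 μg/ml was reacted with 5 μg/ml 3′UTR-containing substrate RNA, 50 μM ATP/GTP/CTP, 2 μM UTP plus [3H]UTP, pH 7.5, 25° C for 60 min. TCA-precipitated RNA radioactivity was counted; IC50 from ± compound.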

[2] = biological target: T2, HCV polymerase (NS5B) type 1b (Hepatitis C virus genotype 1b, UniProt P26663); experiment: Assay of enzyme (HCV polymerase) inhibitory activity, type 1b enzyme; format: biochemical, HCV BK strain (type 1b); conditions: HCV polymerase inhibitory activity (IC50), 1b, type 1b enzyme 0.5 μg/ml, 25° C., 60 min
T2 construct: a region encoding NS5B (J Virol 1991 March, 65(3), 1105-13, 544 amino acids after deletion of 47 amino acids on the C-terminal); 6xHis (C); made in house; host or cells: Escherichia coli
In short: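 NS5B from HCV BK strain (type 1b), C-terminal 47 aa deleted, C-terminal His6-tagged, E. coli-expressed, 0.5 μg/ml, with ~450 nt substrate RNA carrying the 3′ UTR (polyU, 3′X) at 5 μg/ml. Incubation 60 min at 25 °C with 50 μM ATP/GTP/CTP, 2 μM UTP plus [3H]UTP, pH 7.5 Tris.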

Compound: CC(C)c1ccc(CNC(=O)[C@H]2CN(C(=O)Nc3ccc(OCC(=O)O)cc3)CCN2S(=O)(=O)c2ccc(C(F)(F)F)cc2)cc1 [Example 246, (4-{[(R)-3-(4-isopropyl-benzylcarbamoyl)-4-(4-trifluoromethyl-benzenesulfonyl)-piperazine-1-carbonyl]-amino}-phenoxy)-acetic acid]
- IC50 [1]: > 1000 nM
- IC50 [2]: 100 to 1000 nM

Compound: CCCc1ccc(S(=O)(=O)N2CCN(C(C)=O)C[C@@H]2C(=O)NCc2ccc(CC)cc2)cc1 [Example 247, (R)-4-acetyl-1-(4-propyl-benzenesulfonyl)-piperazine-2-carboxylic acid 4-ethyl-benzylamide]
- IC50 [1]: 100 to 1000 nM
- IC50 [2]: < 100 nM

Compound: COc1ccc(S(=O)(=O)N2CCN(C(C)=O)C[C@@H]2C(=O)NCc2ccc(C(C)C)cc2)cc1C(=O)O [Example 248, 5-[(R)-4-acetyl-2-(4-isopropyl-benzylcarbamoyl)-piperazine-1-sulfonyl]-2-methoxy-benzoic acid]
- IC50 [1]: > 1000 nM
- IC50 [2]: 100 to 1000 nM

Compound: CC(=O)N1CCN(S(=O)(=O)c2ccc(OCC(=O)O)cc2)[C@@H](C(=O)NCc2ccc(C(C)C)cc2)C1 [Example 249, {4-[(R)-4-acetyl-2-(4-isopropyl-benzylcarbamoyl)-piperazine-1-sulfonyl]-phenoxy}-acetic acid]
- IC50 [1]: > 1000 nM
- IC50 [2]: > 1000 nM

Compound: COC(=O)CCOc1ccc(S(=O)(=O)N2CCN(C(C)=O)C[C@@H]2C(=O)NCc2ccc(C(C)C)cc2)cc1 [Example 250, 3-{4-[(R)-4-acetyl-2-(4-isopropyl-benzylcarbamoyl)-piperazine-1-sulfonyl]-phenoxy}-propionic acid methyl ester]
- IC50 [1]: 100 to 1000 nM
- IC50 [2]: 100 to 1000 nM

Compound: CC(=O)N1CCN(S(=O)(=O)c2ccc(O)cc2)[C@@H](C(=O)NCc2ccc(C(C)C)cc2)C1 [Example 251, (R)-4-acetyl-1-(4-hydroxy-benzenesulfonyl)-piperazine-2-carboxylic acid 4-isopropyl-benzylamide]
- IC50 [1]: > 1000 nM
- IC50 [2]: > 1000 nM

Compound: COC(=O)CCC(=O)NCC(=O)N1CCN(S(=O)(=O)c2ccc(C(F)(F)F)cc2)[C@@H](C(=O)NCc2ccc(C(C)C)cc2)C1 [Example 252, N-{2-[(R)-3-(4-isopropyl-benzylcarbamoyl)-4-(4-trifluoromethyl-benzenesulfonyl)-piperazin-1-yl]-2-oxo-ethyl}-succinamic acid methyl ester]
- IC50 [1]: 100 to 1000 nM
- IC50 [2]: 100 to 1000 nM

Compound: CC(=O)N1CCN(S(=O)(=O)c2ccc(C(C)C)cc2)[C@@H](C(=O)NCc2ccc(C(C)(C)C)cc2)C1 [Example 253, (R)-4-acetyl-1-(4-isopropyl-benzenesulfonyl)-piperazine-2-carboxylic acid 4-tert-butyl-benzylamide]
- IC50 [1]: < 100 nM
- IC50 [2]: < 100 nM

Compound: COC(=O)c1sc(N2CCN(S(=O)(=O)c3ccc(C(F)(F)F)cc3)[C@@H](C(=O)NCc3ccc(C(C)C)cc3)C2)nc1C [Example 254, 2-[(R)-3-(4-isopropyl-benzylcarbamoyl)-4-(4-trifluoromethyl-benzenesulfonyl)-piperazin-1-yl]-4-methyl-thiazole-5-carboxylic acid methyl ester]
- IC50 [1]: 100 to 1000 nM
- IC50 [2]: < 100 nM

Compound: COC(=O)Cc1csc(N2CCN(S(=O)(=O)c3ccc(C(F)(F)F)cc3)[C@@H](C(=O)NCc3ccc(C(C)C)cc3)C2)n1 [Example 255, {2-[(R)-3-(4-isopropyl-benzylcarbamoyl)-4-(4-trifluoromethyl-benzenesulfonyl)-piperazin-1-yl]-thiazol-4-yl}-acetic acid methyl ester]
- IC50 [1]: < 100 nM
- IC50 [2]: < 100 nM

Compound: CCOC(=O)COc1cccc(NC(=O)N2CCN(S(=O)(=O)c3ccc(C(F)(F)F)cc3)[C@@H](C(=O)NCc3ccc(C(C)C)cc3)C2)c1 [Example 256, (3-{[(R)-3-(4-isopropyl-benzylcarbamoyl)-4-(4-trifluoromethyl-benzenesulfonyl)-piperazine-1-carbonyl]-amino}-phenoxy)-acetic acid ethyl ester]
- IC50 [1]: 100 to 1000 nM
- IC50 [2]: 100 to 1000 nM

Compound: CC(C)c1ccc(CNC(=O)[C@H]2CN(C(=O)Cn3cnnn3)CCN2S(=O)(=O)c2ccc(C(F)(F)F)cc2)cc1 [Example 257, (R)-4-(2-tetrazol-1-yl-acetyl)-1-(4-trifluoromethyl-benzenesulfonyl)-piperazine-2-carboxylic acid 4-isopropyl-benzylamide]
- IC50 [1]: < 100 nM
- IC50 [2]: < 100 nM

Compound: CC(C)c1ccc(CNC(=O)[C@H]2CN(C(=O)CC#N)CCN2S(=O)(=O)c2ccc(C(F)(F)F)cc2)cc1 [Example 258, (R)-4-(2-cyano-acetyl)-1-(4-trifluoromethyl-benzenesulfonyl)-piperazine-2-carboxylic acid 4-isopropyl-benzylamide]
- IC50 [1]: < 100 nM
- IC50 [2]: < 100 nM

Compound: CC(C)c1ccc(CNC(=O)[C@H]2CN(c3nc(CC(=O)O)cs3)CCN2S(=O)(=O)c2ccc(C(F)(F)F)cc2)cc1 [Example 259, {2-[(R)-3-(4-isopropyl-benzylcarbamoyl)-4-(4-trifluoromethyl-benzenesulfonyl)-piperazin-1-yl]-thiazol-4-yl}-acetic acid]
- IC50 [1]: 100 to 1000 nM
- IC50 [2]: < 100 nM

Compound: CC(C)c1ccc(CNC(=O)[C@H]2CN(C(=O)Nc3cccc(OCC(=O)O)c3)CCN2S(=O)(=O)c2ccc(C(F)(F)F)cc2)cc1 [Example 260, (3-{[(R)-3-(4-isopropyl-benzylcarbamoyl)-4-(4-trifluoromethyl-benzenesulfonyl)-piperazine-1-carbonyl]-amino}-phenoxy)-acetic acid]
- IC50 [1]: 100 to 1000 nM
- IC50 [2]: 100 to 1000 nM

Compound: CC(C)c1ccc(CNC(=O)[C@H]2CN(C(=O)Cc3nnn[nH]3)CCN2S(=O)(=O)c2ccc(C(F)(F)F)cc2)cc1 [Example 261, (R)-4-(2-1H-tetrazol-5-yl-acetyl)-1-(4-trifluoromethyl-benzenesulfonyl)-piperazine-2-carboxylic acid 4-isopropyl-benzylamide]
- IC50 [1]: > 1000 nM
- IC50 [2]: 100 to 1000 nM

Compound: CN(C)c1ccc(CNC(=O)[C@H]2CN(C(=O)CN)CCN2S(=O)(=O)c2ccc(C(F)(F)F)cc2)cc1 [Example 262, (R)-4-(2-amino-acetyl)-1-(4-trifluoromethyl-benzenesulfonyl)-piperazine-2-carboxylic acid 4-dimethylamino-benzylamide dihydrochloride]
- IC50 [1]: > 1000 nM
- IC50 [2]: > 1000 nM

Compound: CC(=O)N1CCN(S(=O)(=O)c2cccc(C(F)(F)F)c2)[C@@H](C(=O)NCc2ccc(C(C)C)cc2)C1 [Example 263, (R)-4-acetyl-1-(3-trifluoromethyl-benzenesulfonyl)-piperazine-2-carboxylic acid 4-isopropyl-benzylamide]
- IC50 [1]: 100 to 1000 nM
- IC50 [2]: 100 to 1000 nM

Compound: CC(=O)N1CCN(S(=O)(=O)c2ccc3c(c2)CCCCC3)[C@@H](C(=O)NCc2ccc(C(C)C)cc2)C1 [Example 264, (R)-4-acetyl-1-(6,7,8,9-tetrahydro-5H-benzocycloheptene-2-sulfonyl)-piperazine-2-carboxylic acid 4-isopropyl-benzylamide]
- IC50 [1]: < 100 nM
- IC50 [2]: < 100 nM

Compound: CC(C)c1ccc(CNC(=O)[C@H]2CN(C(=O)NS(=O)(=O)c3ccccc3)CCN2S(=O)(=O)c2ccc(C(F)(F)F)cc2)cc1 [Example 265, (R)-4-benzenesulfonylaminocarbonyl-1-(4-trifluoromethyl-benzenesulfonyl)-piperazine-2-carboxylic acid 4-isopropyl-benzylamide]
- IC50 [1]: > 1000 nM
- IC50 [2]: > 1000 nM

Compound: COc1ccc(CC(=O)N2CCN(S(=O)(=O)c3ccc(C(F)(F)F)cc3)[C@@H](C(=O)NCc3ccc(C(C)C)cc3)C2)cc1 [Example 266, (R)-4-[2-(4-methoxy-phenyl)-acetyl]-1-(4-trifluoromethyl-benzenesulfonyl)-piperazine-2-carboxylic acid 4-isopropyl-benzylamide]
- IC50 [1]: 100 to 1000 nM
- IC50 [2]: 100 to 1000 nM

Compound: COc1ccccc1CC(=O)N1CCN(S(=O)(=O)c2ccc(C(F)(F)F)cc2)[C@@H](C(=O)NCc2ccc(C(C)C)cc2)C1 [Example 267, (R)-4-[2-(2-methoxy-phenyl)-acetyl]-1-(4-trifluoromethyl-benzenesulfonyl)-piperazine-2-carboxylic acid 4-isopropyl-benzylamide]
- IC50 [1]: > 1000 nM
- IC50 [2]: 100 to 1000 nM

Compound: COc1cccc(CC(=O)N2CCN(S(=O)(=O)c3ccc(C(F)(F)F)cc3)[C@@H](C(=O)NCc3ccc(C(C)C)cc3)C2)c1 [Example 268, (R)-4-[2-(3-methoxy-phenyl)-acetyl]-1-(4-trifluoromethyl-benzenesulfonyl)-piperazine-2-carboxylic acid 4-isopropyl-benzylamide]
- IC50 [1]: > 1000 nM
- IC50 [2]: 100 to 1000 nM

Compound: CC(C)c1ccc(CNC(=O)[C@H]2CN(C(=O)Nc3ccccc3Cl)CCN2S(=O)(=O)c2ccc(C(F)(F)F)cc2)cc1 [Example 269, (R)-4-(4-trifluoromethyl-benzenesulfonyl)-piperazine-1,3-dicarboxylic acid 1-[(2-chloro-phenyl)-amide] 3-(4-isopropyl-benzylamide)]
- IC50 [1]: > 1000 nM
- IC50 [2]: > 1000 nM
